According to the Kinase Knowledgebase extract (Sharma et al. 2016):

Each compound was assayed against EGFR (UniProt P00533).
Chain of EGFR (P00533 whole entry, looked up): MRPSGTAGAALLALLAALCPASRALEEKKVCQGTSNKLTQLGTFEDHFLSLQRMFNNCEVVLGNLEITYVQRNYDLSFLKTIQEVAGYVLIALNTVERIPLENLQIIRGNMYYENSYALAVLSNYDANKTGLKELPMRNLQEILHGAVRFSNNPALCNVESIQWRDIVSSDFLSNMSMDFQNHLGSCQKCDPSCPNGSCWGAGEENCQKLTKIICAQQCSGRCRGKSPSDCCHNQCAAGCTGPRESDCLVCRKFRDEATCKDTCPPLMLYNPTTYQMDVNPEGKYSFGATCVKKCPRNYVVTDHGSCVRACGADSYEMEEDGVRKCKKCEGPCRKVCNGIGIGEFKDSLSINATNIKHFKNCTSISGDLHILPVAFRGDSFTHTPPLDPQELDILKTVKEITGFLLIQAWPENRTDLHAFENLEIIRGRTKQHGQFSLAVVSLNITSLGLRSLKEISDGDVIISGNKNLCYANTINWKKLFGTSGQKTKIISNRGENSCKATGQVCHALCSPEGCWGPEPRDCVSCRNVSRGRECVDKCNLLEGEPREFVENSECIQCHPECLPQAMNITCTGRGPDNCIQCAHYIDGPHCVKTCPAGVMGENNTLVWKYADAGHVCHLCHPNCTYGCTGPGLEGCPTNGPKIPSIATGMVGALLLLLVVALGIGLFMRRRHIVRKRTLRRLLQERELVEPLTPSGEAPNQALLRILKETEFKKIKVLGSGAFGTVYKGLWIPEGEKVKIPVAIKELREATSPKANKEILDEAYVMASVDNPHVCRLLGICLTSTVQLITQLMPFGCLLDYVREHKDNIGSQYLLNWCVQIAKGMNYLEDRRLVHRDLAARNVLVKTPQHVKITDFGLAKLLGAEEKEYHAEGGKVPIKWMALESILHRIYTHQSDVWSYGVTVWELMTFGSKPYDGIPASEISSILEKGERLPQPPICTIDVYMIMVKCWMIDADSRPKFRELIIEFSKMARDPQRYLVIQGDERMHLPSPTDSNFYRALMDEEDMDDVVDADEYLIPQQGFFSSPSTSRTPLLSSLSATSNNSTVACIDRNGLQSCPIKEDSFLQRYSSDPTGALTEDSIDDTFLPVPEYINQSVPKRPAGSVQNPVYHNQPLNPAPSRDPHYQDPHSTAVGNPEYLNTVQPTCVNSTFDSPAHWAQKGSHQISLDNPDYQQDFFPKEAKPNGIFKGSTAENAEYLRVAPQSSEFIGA

SMILES | IC50 [µM]
N#Cc1ccccc1C#Cc1cncnc1Nc1ccc(OCc2cccc(F)c2)c(Cl)c1 | ≤ 10
N#CCCNCc1cccc(C#Cc2cncnc2Nc2ccc(OCc3cccc(F)c3)c(Cl)c2)n1 | ≤ 10
NCc1cccc(C#Cc2cncnc2Nc2ccc(OCc3cccc(F)c3)c(Cl)c2)n1 | ≤ 10
CC(=O)NCCNCc1cccc(C#Cc2cncnc2Nc2ccc(OCc3cccc(F)c3)c(Cl)c2)n1 | ≤ 10
Fc1cccc(COc2ccc(Nc3ncncc3C#Cc3ccc4c(c3)CNCC4)cc2Cl)c1 | ≤ 10
C(=C\c1cncnc1Nc1ccc2sc(Cc3ccccc3)nc2c1)/c1ccsc1 | > 1
CC(=O)NCc1cccc(C#Cc2cncnc2Nc2ccc(OCc3cccc(F)c3)c(Cl)c2)c1 | ≤ 10
Fc1cccc(COc2ccc(Nc3ncncc3C#Cc3cccc(CN4CCNCC4)n3)cc2Cl)c1 | ≤ 10
Fc1cccc(COc2ccc(Nc3ncncc3C#Cc3cn[nH]c3)cc2Cl)c1 | ≤ 10
COCCNCc1cccc(C#Cc2cncnc2Nc2ccc(OCc3cccc(F)c3)c(Cl)c2)n1 | ≤ 10
C(=C\c1cncnc1Nc1ccc2c(cnn2Cc2ccccc2)c1)/c1cn[nH]c1 | 0.1 to 1
Fc1cccc(COc2ccc(Nc3ncncc3C#Cc3nccs3)cc2Cl)c1 | ≤ 10
N=C(N)Nc1cccc(C#Cc2cncnc2Nc2ccc(OCc3cccc(F)c3)c(Cl)c2)c1 | 0.1 to 1
Fc1cccc(COc2ccc(Nc3ncncc3C#Cc3ccccn3)cc2Cl)c1 | ≤ 10
Nc1ccc(C#Cc2cncnc2Nc2ccc(OCc3cccc(F)c3)c(Cl)c2)cc1 | ≤ 10
Fc1cccc(COc2ccc(Nc3ncncc3/C=C/c3ccccc3)cc2Cl)c1 | < 0.1
COCCNC(=O)NCc1cccc(C#Cc2cncnc2Nc2ccc(OCc3cccc(F)c3)c(Cl)c2)n1 | ≤ 10
O=C(NCCN1CCOCC1)NCc1cccc(C#Cc2cncnc2Nc2ccc(OCc3cccc(F)c3)c(Cl)c2)n1 | < 0.1
Fc1cccc(COc2ccc(Nc3ncncc3C#Cc3cccs3)cc2Cl)c1 | ≤ 10
Fc1cccc(COc2ccc(Nc3ncncc3C#Cc3cccc(CNCCCn4ccnc4)n3)cc2Cl)c1 | < 0.1
CS(=O)(=O)CC(=O)Nc1cccc(C#Cc2cncnc2Nc2ccc(OCc3cccc(F)c3)c(Cl)c2)c1 | ≤ 10
CSc1nccc(C#Cc2cncnc2Nc2ccc(OCc3cccc(F)c3)c(Cl)c2)n1 | ≤ 10
CS(=O)(=O)CCNCc1ccc(C#Cc2cncnc2Nc2ccc(OCc3cccc(F)c3)c(Cl)c2)o1 | ≤ 10
Cn1cncc1C#Cc1cncnc1Nc1ccc(OCc2cccc(F)c2)c(Cl)c1 | ≤ 10
O=Cc1ccccc1C#Cc1cncnc1Nc1ccc(OCc2cccc(F)c2)c(Cl)c1 | ≤ 10

SMILES | IC50 [µM]
Oc1cccnc1/C=C/c1cncnc1Nc1ccc(OCc2cccc(F)c2)c(Cl)c1 | ≤ 10
Fc1cccc(COc2ccc(Nc3ncncc3C#Cc3ncccn3)cc2Cl)c1 | ≤ 10
CNC(=O)c1cccc(/C=C/c2cncnc2Nc2ccc3[nH]c(Cc4ccccc4)nc3c2)c1 | ≤ 10
O=Cc1cccc(C#Cc2cncnc2Nc2ccc(OCc3cccc(F)c3)c(Cl)c2)c1 | ≤ 10
Fc1cccc(COc2ccc(Nc3ncncc3C#Cc3cccc(CNCCN4CCOCC4)n3)cc2Cl)c1 | 0.1 to 1
CS(=O)(=O)CCNc1nc(C#Cc2cncnc2Nc2ccc(OCc3cccc(F)c3)c(Cl)c2)ncc1C#N | ≤ 10
Oc1cccnc1/C=C/c1cncnc1Nc1ccc2c(cnn2Cc2ccccc2)c1 | ≤ 10
Fc1cccc(COc2ccc(Nc3ncncc3/C=C/c3cccs3)cc2Cl)c1 | ≤ 10
Nc1ncc(/C=C/c2cncnc2Nc2ccc3c(cnn3Cc3ccccc3)c2)cn1 | ≤ 10
COCc1cccc(C#Cc2cncnc2Nc2ccc(OCc3cccc(F)c3)c(Cl)c2)n1 | > 1
Fc1cccc(COc2ccc(Nc3ncncc3C#Cc3ccnc(N4CCOCC4)n3)cc2Cl)c1 | ≤ 10
Nc1ncc(/C=C/c2cncnc2Nc2ccc(OCc3cccc(F)c3)c(Cl)c2)cn1 | ≤ 10
C(=C\c1cncnc1Nc1ccc2[nH]c(Cc3ccccc3)nc2c1)/c1cn[nH]c1 | ≤ 10
COc1ccc(/C=C/c2cncnc2Nc2ccc(OCc3cccc(F)c3)c(Cl)c2)cc1OC | < 0.1
CC(=O)Nc1ccc(/C=C/c2cncnc2Nc2ccc(OCc3cccc(F)c3)c(Cl)c2)cn1 | ≤ 10
O=C(Nc1cccc(C#Cc2cncnc2Nc2ccc(OCc3cccc(F)c3)c(Cl)c2)n1)C(F)(F)F | < 0.1
Fc1cccc(COc2ccc(Nc3ncncc3C#Cc3cccc(CN4CCCC4)n3)cc2Cl)c1 | ≤ 10
Fc1cccc(COc2ccc(Nc3ncncc3/C=C/c3ccsc3)cc2Cl)c1 | < 0.1
NCCC(=O)Nc1cccc(C#Cc2cncnc2Nc2ccc(OCc3cccc(F)c3)c(Cl)c2)c1 | ≤ 10
CC(=O)Nc1cccc(C#Cc2cncnc2Nc2ccc(Cc3ccccc3)cc2)c1 | ≤ 10
CC(=O)Nc1cccc(C#Cc2cncnc2Nc2ccc3c(cnn3Cc3ccccc3)c2)c1 | ≤ 10
CN1CCN(Cc2cccc(C#Cc3cncnc3Nc3ccc(OCc4cccc(F)c4)c(Cl)c3)n2)CC1 | ≤ 10
Fc1cccc(COc2ccc(Nc3ncncc3/C=C/c3cn[nH]c3)cc2Cl)c1 | ≤ 10
CSCCC(=O)Nc1cccc(C#Cc2cncnc2Nc2ccc(OCc3cccc(F)c3)c(Cl)c2)c1 | ≤ 10
CS(=O)(=O)CCNCc1cccc(C#Cc2cncnc2Nc2ccc(OCc3cccc(F)c3)c(Cl)c2)c1 | ≤ 10

SMILES | IC50 [µM]
CS(=O)(=O)CCNC(=O)NCc1cccc(C#Cc2cncnc2Nc2ccc(OCc3cccc(F)c3)c(Cl)c2)n1 | < 0.1
CN(CCO)C(=O)NCc1cccc(C#Cc2cncnc2Nc2ccc(OCc3cccc(F)c3)c(Cl)c2)n1 | ≤ 10
CN(CCO)Cc1cccc(C#Cc2cncnc2Nc2ccc(OCc3cccc(F)c3)c(Cl)c2)n1 | ≤ 10
C(=C\c1cncnc1Nc1ccc2[nH]c(Cc3ccccc3)nc2c1)/c1ccsc1 | ≤ 10
CN(C)Cc1cccc(C#Cc2cncnc2Nc2ccc(OCc3cccc(F)c3)c(Cl)c2)n1 | ≤ 10
CC(=O)Nc1cccc(C#Cc2cncnc2Nc2ccc(OCc3cccc(F)c3)c(Cl)c2)c1 | ≤ 10
C(#Cc1cncnc1Nc1ccc2c(ccn2Cc2ccccc2)c1)c1ccccc1 | ≤ 10
N#Cc1ccc(C#Cc2cncnc2Nc2ccc(OCc3ccc(F)cc3)c(Cl)c2)nc1N | ≤ 10
CN(C)CCCC(=O)Nc1cccc(C#Cc2cncnc2Nc2ccc(OCc3cccc(F)c3)c(Cl)c2)n1 | < 0.1
COc1cccc(C#Cc2cncnc2Nc2ccc(OCc3cccc(F)c3)c(Cl)c2)n1 | ≤ 10
C(=C\c1cncnc1Nc1ccc2c(cnn2Cc2ccccc2)c1)/c1ccncc1 | ≤ 10
COCCOCC(=O)Nc1cccc(C#Cc2cncnc2Nc2ccc(OCc3cccc(F)c3)c(Cl)c2)c1 | ≤ 10
Fc1cccc(C#Cc2cncnc2Nc2ccc(OCc3cccc(F)c3)c(Cl)c2)c1 | ≤ 10
Cc1ccc(S(=O)(=O)n2ccc3ccc(C#Cc4cncnc4Nc4ccc(OCc5cccc(F)c5)c(Cl)c4)cc32)cc1 | ≤ 10
CC(C)(C)OC(=O)NCc1cccc(C#Cc2cncnc2Nc2ccc(OCc3cccc(F)c3)c(Cl)c2)c1 | ≤ 10
Fc1cccc(COc2ccc(Nc3ncncc3C#Cc3ccccc3)cc2Cl)c1 | ≤ 10
C(=C\c1cncnc1Nc1ccc2[nH]c(Cc3ccccc3)nc2c1)/c1ccccc1 | ≤ 10
OCc1ccc(C#Cc2cncnc2Nc2ccc(OCc3cccc(F)c3)c(Cl)c2)o1 | ≤ 10
CNCc1cccc(C#Cc2cncnc2Nc2ccc(OCc3cccc(F)c3)c(Cl)c2)n1 | ≤ 10
CS(=O)(=O)CCNc1cccc(C#Cc2cncnc2Nc2ccc(OCc3cccc(F)c3)c(Cl)c2)n1 | > 1
N#CCCNC(=O)NCc1cccc(C#Cc2cncnc2Nc2ccc(OCc3cccc(F)c3)c(Cl)c2)n1 | ≤ 10
CNC(=O)NCc1cccc(C#Cc2cncnc2Nc2ccc(OCc3cccc(F)c3)c(Cl)c2)n1 | ≤ 10
Fc1cccc(COc2ccc(Nc3ncncc3/C=C/c3cccnc3)cc2Cl)c1 | ≤ 10
Fc1cccc(COc2ccc(Nc3ncncc3C#Cc3ccsc3)cc2Cl)c1 | ≤ 10
CC(=O)Nc1cccc(C#Cc2cncnc2Nc2ccc(OCc3cccc(F)c3)c(Cl)c2)n1 | ≤ 10

SMILES | IC50 [µM]
Oc1ccc(C#Cc2cncnc2Nc2ccc(OCc3cccc(F)c3)c(Cl)c2)cc1 | ≤ 10
Fc1cccc(COc2ccc(Nc3ncncc3C#Cc3cccc(CN4CCOCC4)n3)cc2Cl)c1 | ≤ 10
OCc1nc(C#Cc2cncnc2Nc2ccc(OCc3cccc(F)c3)c(Cl)c2)cs1 | ≤ 10
Nc1cccc(C#Cc2cncnc2Nc2ccc(OCc3cccc(F)c3)c(Cl)c2)c1 | ≤ 10
Fc1cccc(COc2ccc(Nc3ncncc3C#Cc3cccc(CN4CCCCC4)n3)cc2Cl)c1 | < 0.1
Fc1cccc(COc2ccc(Nc3ncncc3C#Cc3cccc(CNCc4ccccc4)n3)cc2Cl)c1 | ≤ 10
Fc1cccc(COc2ccc(Nc3ncncc3C#Cc3cncnc3)cc2Cl)c1 | ≤ 10
Nc1ccc(C#Cc2cncnc2Nc2ccc(OCc3cccc(F)c3)c(Cl)c2)cn1 | ≤ 10
Fc1cccc(COc2ccc(Nc3ncncc3C#Cc3cccnc3)cc2Cl)c1 | ≤ 10
C(=C\c1cncnc1Nc1ccc2c(cnn2Cc2ccccc2)c1)/c1cccnc1 | ≤ 10
N#Cc1cccc(C#Cc2cncnc2Nc2ccc(OCc3cccc(F)c3)c(Cl)c2)c1 | ≤ 10
COC(=O)CCC(=O)Nc1cccc(C#Cc2cncnc2Nc2ccc(OCc3cccc(F)c3)c(Cl)c2)n1 | 0.1 to 1
C(=C\c1cncnc1Nc1ccc(Oc2ccccc2)cc1)/c1ccccc1 | ≤ 10
CC(=O)Nc1cccc(/C=C/c2cncnc2Nc2ccc3c(cnn3Cc3ccccc3)c2)c1 | ≤ 10
O=Cc1ccc(C#Cc2cncnc2Nc2ccc(OCc3cccc(F)c3)c(Cl)c2)o1 | ≤ 10
CC(=O)Nc1cccc(/C=C/c2cncnc2Nc2ccc(OCc3cccc(F)c3)c(Cl)c2)c1 | < 0.1
CC(=O)Nc1cccc(C#Cc2cncnc2Nc2ccc(Oc3ccccc3)cc2)c1 | ≤ 10
CC(=O)Nc1cccc(C#Cc2cncnc2Nc2ccc3[nH]c(Cc4ccccc4)nc3c2)c1 | ≤ 10
O=C(Nc1cccc(C#Cc2cncnc2Nc2ccc(OCc3cccc(F)c3)c(Cl)c2)n1)C(F)(F)Cl | ≤ 10
CC(=S)Nc1cccc(C#Cc2cncnc2Nc2ccc(OCc3cccc(F)c3)c(Cl)c2)c1 | ≤ 10
N#CCCNCc1ccc(C#Cc2cncnc2Nc2ccc(OCc3cccc(F)c3)c(Cl)c2)o1 | ≤ 10
Fc1cccc(COc2ccc(Nc3ncncc3/C=C/c3ccncc3)cc2Cl)c1 | < 0.1
